The record followed here is paper PMC12216184 (Nature Communications, 2025).

The target of assay [1] is p53^TAD2 phosphorylated at Thr55 (human) (UniProt P04637). Put plainly: ITC. Background: Isothermal titration calorimetry measures the heat released or taken up as one component is titrated into another.
Assay [2] addresses p53^TAD2 (residues 37-57), synthetic peptide (human) (UniProt P04637). Description: ITC.
Assay [3] has as its target p53^TAD2 phosphorylated at Ser46 (human) (UniProt P04637). Description: ITC.
Assay [4] deals with p53^TAD2 phosphorylated at Ser46 and Thr55 (human) (UniProt P04637). Description: ITC.
In assay [5] the target is N-terminal p53 region from amino acids 1 to 94 (p53^1-94) (human) (UniProt P04637). Description: ITC.
Assay [6] concerns endogenous p53 versus p53^ΔTAD2 in RPE-1 cells. Put plainly: Pull-down of endogenous p53 versus p53^ΔTAD2 from RPE-1 cells. In kind it is binding, human. The settings on record: biotinylated bait (26 µM FOXO-FH or 125 µM biotinylated peptide CLO4201) on streptavidin agarose, 1 mg/mL RPE-1 lysate, 4 °C, Western blot, triplicates. The source says:
Then, cells were selected by blasticidin for 10 days. Cells, which were expressing 3HA-GFP-miniturbo, p53-3HA-GFP-miniturbo-p53 and p53-Δtad2-3HA-GFP-miniturbo were sorted by FACS using GFP (Supplementary Fig. 17).
p53 mutant human TERT-immortalized retinal pigment epithelial 1 (RPE1) cells (RPE1 TP53^−/−; denoted RPE-1 p53KO) cells were kindly provided by Joanna Loizou (CeMM Research Center for Molecular Medicine of the Austrian Academy of Sciences, Vienna, Austria)[48]. […] For the preparation of cell lysates for pull down experiments, cells were grown to confluence and incubated with 10 µM Etoposide (Sigma) for 24 h. Cells were harvested in ice cold PBS pH 7.4 and lysed in lysis buffer (10 mM Tris pH 7.4, 1% IGEPAL®CA-630, 0.1% SDS, 140 mM NaCl, 2 mM MgCl2) supplemented with protease inhibitor cocktail, Benzonase (Merck Millipore) and RNase (molecular biology, Thermo Fisher). Samples were incubated on ice for 20 min, lysed by sonication and centrifuged for 15 min at 24,104 g and 4 °C. Pellets were discarded. Protein amount of lysates was determined by BCA protein assay. Lysates were then diluted to a protein concentration of 1 mg/mL in ice-cold dilution buffer (10 mM Tris pH 7.4, 1% IGEPAL®CA-630, 0.1% SDS, 140 mM NaCl, 2 mM EDTA) supplemented with protease inhibitor cocktail. […]
On the technique in general: In western blotting, separated proteins are transferred to a membrane and probed.

The test system of assay [7] is p53^1–94. Description: 1H,15N HSQC NMR titration of 15N-labeled p53^1–94 (CSP). The settings on record: 15N-labeled p53^1–94, NMR titration. It is filed as binding, human.
Description: (§1) All NMR spectra were recorded at 298 K either on a 700 MHz Bruker Avance III NMR spectrometer equipped with a TCI cryoprobe or on a 600 MHz Bruker Avance Neo NMR spectrometer equipped with a TXI 600S3 probehead at 298 K. All samples were in 50 mM NaH2PO4/Na2HPO4, pH 7.5 and 10 % D2O was added for the lock. Chemical shifts of the recombinant FOXO4-LRI were assigned using the following three-dimensional spectra: HNCACB, CBCA(CO)NH, (HN)N(CA)NNH, HN(NCA)NNH and (H)CC(CO)NH.
(§2) The CSPs were calculated according to the following equation:1 CSP=δH^2+ΔδN^2/7 where ΔδH and ΔδN indicate the chemical shift changes of the amide proton and nitrogen, respectively, using CcpNMR 2.5[49].
For assay [8], the system named is p53^1–94. Put plainly: NMR secondary chemical shifts and relaxation (15N{1H} NOE, R1, R2) of p53^1–94. It is filed as binding, human. The conditions noted are these: 300 µM p53^1–94 with 400 µM ligand, pH 7.5. As for the experimental part: Data analysis von R1 and R1ρ measurements were performed using CcpNMR 2.5[49]. As fitting function, the following equation was used2 Mzt=M0^−Rit+C where Mz(t) is the longitudinal relaxation at the recovery delay time t, M0 is the equilibrium magnetization and Ri is either the longitudinal relaxation rate R1 or R1ρ. The transverse relaxation in the rotating frame R1ρ was then converted to R2 as described previously[50],[51] using the formula3 R1ρ=R1cos^2θ+R2sin^2θ in which θ = arctan(1/Ω) is the tilt angle between the static magnetic field and the effective field in the rotating frame.

The target of assay [9] is T1, p53^TAD2pT55 (Homo sapiens, UniProt P04637).
T1 construct: purchased Peptide Specialty Laboratories GmbH
Description: ITC, p53^TAD2pT55. In kind it is binding.

Assay [10] has as its target T2, p53^1-94 (Homo sapiens, UniProt P04637).
T2 construct: His6-protein A (TEV cleavage site) (cleaved yes); made in house; host or cells: Escherichia coli BL21-DE3 Star
Description: ITC, p53^1-94. In kind it is binding.

For assay [11], the target named is T3, p53^TAD2 (Homo sapiens, UniProt P04637).
T3 construct: purchased Peptide Specialty Laboratories GmbH
Put plainly: ITC, p53^TAD2. In kind it is binding.

Assay [12] has as its target T4, p53^TAD2pS46 (Homo sapiens, UniProt P04637).
T4 construct: purchased Peptide Specialty Laboratories GmbH
Description: ITC, p53^TAD2pS46. In kind it is binding.

Assay [13] deals with T5, p53^TAD2pS46T55 (Homo sapiens, UniProt P04637).
T5 construct: purchased Peptide Specialty Laboratories GmbH
Description: ITC, p53^TAD2pS46T55. In kind it is binding.

Assay [14] relates to FOXO4^CR3. Put plainly: 1H,15N HSQC NMR titration of 15N-labeled FOXO4^CR3 (CSP). The settings on record: 15N-labeled FOXO4^CR3, NMR titration with p53^DBD. In kind it is binding, human.
Description: as §1, §2
The subject of assay [15] is FOXO4^FH. Put plainly: 1H,15N HSQC NMR titration of 15N-labeled FOXO4^FH (CSP). It is filed as binding, human. The settings on record: one equivalent of phosphopeptide versus p53^TAD2, 15N-labeled FOXO4^FH.
Description: as §1, §2

Non-standard residues stand in square brackets, D forms with d. No end group written: not given here.

T2 sequence (P04637 1-94): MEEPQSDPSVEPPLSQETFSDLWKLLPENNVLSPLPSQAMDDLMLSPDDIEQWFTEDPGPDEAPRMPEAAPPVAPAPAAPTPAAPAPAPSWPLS
Sequence of N-terminal p53 region from amino acids 1 to 94 (p53^1-94) (human) (P04637 1-94): as above
Sequence of p53^TAD2 phosphorylated at Ser46 and Thr55 (human) (P04637 37-57): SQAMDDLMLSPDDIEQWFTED

As to “FOXO4-DRI (D-retro-inverso cell-penetrating peptide derived from the FOXO4 FH domain, fused to HIV-TAT)”, the dH in assay [1] is -4.7 kcal/mol; in assay [2], 0.2 kcal/mol; in [3], -1.8 kcal/mol; in [4] it was -4.5 kcal/mol; in [5], 5.9 kcal/mol. For the same substance, the stoichiometry N was 0.74 in assay [1]; 0.9 in assay [2]; 0.71 in assay [3]; 1.11 in [4]; 0.9 in assay [5].

As for “FOXO4^FH: FOXO4 forkhead domain fragment, amino acids 86–208”, in assay [6], the “pull-down of endogenous p53 versus p53^ΔTAD2” value was “higher amounts of endogenous p53 versus p53^ΔTAD2”. Moreover, the “most affected residues of p53 (CSP)” value in assay [7] is listed as “region from amino acids 45 to 57”. Besides, in assay [8], the “15N{1H} NOE change” value is “increased substantially in the presence of FOXO4^FH” and the “R1 relaxation rate change” value is reported as “highly similar”.

On to “[dL][dT][dL][dR][dK][dE][dP][dA][dS][dE][dI][dA][dQ][dS][dI][dL][dE][dA][dY][dS][dQ][dN]G[dW][dA][dN][dR][dR][dS]GG[dK][dR][dP][dP][dP][dR][dR][dR][dQ][dR][dR][dK][dK][dR]G [FOXO4-DRI]”, for which the Kd in assay [9] was 5.8 ± 1.2 µM; in assay [10], 0.4 ± 0.3 µM; in [11], 18.5 ± 3.6 µM; in assay [12], 10.5 ± 1.5 µM; in [13], 4.9 ± 0.3 µM.

For “p53^DBD: human p53 DNA-binding domain fragment, amino acids 94–312”, in assay [14], the “most affected residues of FOXO4^CR3 (CSP)” value was “between FOXO4 amino acids 473 and 491”.

Consider “p53^TAD2pS46: p53^TAD2 peptide phosphorylated at Ser46”, for which the “effect of phosphorylation on CSPs of FOXO4^FH” value in [15] was “stronger CSPs”.

With “p53^TAD2pT55: p53^TAD2 peptide phosphorylated at Thr55”, the “effect of phosphorylation on CSPs of FOXO4^FH” value in assay [15] is “stronger CSPs”.

One may read the stoichiometry N as the number of molecules, sites or subunits per partner or assembly. A word on the Kd: it is a measure of binding affinity in units of concentration. Low values mean a tighter complex, high ones a looser complex.
